# Test results reported in patent publication US20070254288A1, “Diagnostic methods for pain sensitivity and chronicity and for tetrahydrobiopterin-related disorders” (The General Hospital Corporation, priority 2005, published 2007).
# pIC50: −log10 of the molar value. Entries after “also recorded” stand apart in the source; their conditions may differ.
# Key:
# [1] = test system: Sprague Dawley rats; test: Spared nerve injury (SNI) model: mechanical (von Frey) and cold (acetone) allodynia; assay type: in vivo, rat
# Description: (§1) Adult male Sprague Dawley rats (150-200 g, Charles River Laboratories) were used. For the SNI model two branches of the sciatic nerve, the common peroneal and the tibial nerve, were ligated and sectioned distally. For the CCI model the sciatic nerve was constricted with three Dexon 4/0 ligatures. For the SNL model, the L5 spinal nerve was tightly ligated. All surgical procedures were under isoflurane anesthesia. For the Formalin test 50 μl of 5% formaldehyde solution were injected into a hindpaw and flinches were counted per minute up to 60 min. Paw inflammation was induced with 50 μl complete Freund's adjuvant (CFA) injected into a hindpaw. Nociceptive analysis was done blinded, and animals were fully habituated to the room and test cages. Mechanical allodynia was assessed with graded strength monofilament von Frey hairs (0.0174-20.9 gram, log scaled), cold allodynia with the acetone test and heat hyperalgesia with the Hargreaves test. Drugs (Sigma) were injected intraperitoneally or intrathecally through a spinal catheter, osmotic pumps were used for infusion. Control animals received vehicle. L4/5 DRG and spinal cord tissue was processed for QRT-PCR, Western blotting, in situ hybridization and immunofluorescence studies.
# (§2) Animals were fully habituated and experiments performed blinded. Threshold for eliciting a withdrawal reflex to graded strength monofilament von Frey hairs (0.0174-20.9 g) was measured to assess mechanical allodynia. To measure cold allodynia, a drop of acetone was applied to the plantar hindpaw, and the time the animal spent licking, shaking or lifting the paw was measured (Tegeder et al., J Neurosci 24:1637-1645 (2004)). Paw withdrawal latency to radiant heat (lamp with 8 V, 50 W) assessed heat evoked pain (Ugo Basile).
# (§3) DAHP was dissolved in 1:1 polyethylene glycol (PEG400) and 1×PBS, pH 7.4 (15 mg/ml) and administered i.p. or intrathecally (250 μg/kg/h; 5 μl/h). For all i.t. injections/infusions a spinal catheter (Recathco) was used and implanted as described (Kunz et al., Pain 110:409-418 (2004)). Infusions with an osmotic pump (Alzet). 6R-BH4 in ACSF was injected i.t. (10 μg, single 10 μl injection). N-acetyl-serotonin in 1×PBS pH 7.4 containing 3% ethanol was delivered by i.t. infusion (100 μg/kg/h; 5 μl/h). Control animals received the appropriate vehicle. All drugs from Sigma-Aldrich.
# Data are means ±SEM. The number of animals per group was 9-12. Areas under the “effect versus time” curves (AUC) were calculated using the linear trapezoidal rule and compared with Student's t-test or univariate analysis of variance (ANOVA) with subsequent t-tests employing a Bonferroni alpha-correction for multiple comparisons. All other data were analyzed with univariate ANOVA or ANOVA for repeated measurements. P at 0.05 for all tests.
# [2] = test system: Sprague Dawley rats; test: Chronic constriction injury (CCI) model: mechanical and cold allodynia; assay type: in vivo, rat; conditions: 180 mg/kg i.p.
# Description: as §1, with “Nociceptive analysis was done blinded, and animals were fully habituated to the room and test cages.” left out, “Drugs (Sigma) were injected intraperitoneally or intrathecally through a spinal catheter, osmotic pumps were used for infusion. Control animals received vehicle. L4/5 DRG and spinal cord tissue was processed for QRT-PCR, Western blotting, in situ hybridization and immunofluorescence studies.” left out
# as §2, with “Basile). […]” for “Basile).”
# [3] = test system: Sprague Dawley rats; test: Spinal nerve ligation (SNL) model: mechanical and cold allodynia; assay type: in vivo, rat; conditions: 180 mg/kg i.p.
# Description: as §1, with “Nociceptive analysis was done blinded, and animals were fully habituated to the room and test cages.” left out, “Drugs (Sigma) were injected intraperitoneally or intrathecally through a spinal catheter, osmotic pumps were used for infusion. Control animals received vehicle. L4/5 DRG and spinal cord tissue was processed for QRT-PCR, Western blotting, in situ hybridization and immunofluorescence studies.” left out
# as §2, with “Basile). […]” for “Basile).”
# [4] = test system: Sprague Dawley rats; test: CFA-induced paw inflammation: thermal hyperalgesia (Hargreaves); assay type: in vivo, rat
# Description: as §1, with “Drugs (Sigma) were injected intraperitoneally or intrathecally through a spinal catheter, osmotic pumps were used for infusion. Control animals received vehicle. L4/5 DRG and spinal cord tissue was processed for QRT-PCR, Western blotting, in situ hybridization and immunofluorescence studies.” left out
# (§4) For the Formalin test 50 μl of 5% formaldehyde solution were injected into one hindpaw and flinches were counted per minute up to 60 min. […]
# as §2
# Data are means ±SEM. […] Areas under the “effect versus time” curves (AUC) were calculated using the linear trapezoidal rule and compared with Student's t-test or univariate analysis of variance (ANOVA) with subsequent t-tests employing a Bonferroni alpha-correction for multiple comparisons. All other data were analyzed with univariate ANOVA or ANOVA for repeated measurements. […]
# [5] = test system: Sprague Dawley rats; test: Formalin test: flinching and cFos immunoreactive dorsal horn neurons; assay type: in vivo, rat
# Description: as §1, §4
# [6] = test system: BH4 synthesis (GTP cyclohydrolase activity); test: Tissue concentrations of neopterin and biopterin in L4/5 DRGs (LC/MS-MS); assay type: in vivo, rat; conditions: single 180 mg/kg i.p. 3 hours before dissection, 180 mg/kg
# Description: Homogenized tissue was oxidized with iodine, and pteridines were extracted on Oasis MCX cartridges. Concentrations of total biopterin, neopterin, and the internal standard rhamnopterin were determined by LC/MS-MS. LC analysis under gradient conditions on a Nucleosil C8 column; MS-MS analyses on an API 4000 Q TRAP triple quadrupole mass spectrometer. Precursor-to-product ion transitions of m/z 236→192 for biopterin, m/z 252→192 for neopterin, m/z 265→192 for rhamnopterin were used for the MRM. Linearity from 0.1-50 ng/ml. The coefficient of correlation for all measured sequences was at least 0.99. The intra-day and inter-day variability was <10%.
# [7] = Plasma and CSF concentrations of DAHP (LC/MS-MS); assay type: in vivo, rat; conditions: after i.p. injection of 180 mg/kg; compared with IC50 range 100-300 μM
# Description: Concentrations of DAHP were determined LC/MS-MS on a tandem quadrupole mass spectrometer (PE Sciex API 3000; Applied Biosystems). Extraction was by acetonitrile precipitation; chromatographic separation was performed on a Nucleosil C18 Nautilus column (125×4 mm I.D., 5 μm particle size, 100 Å pore size). Mobile phase was acetonitrile:water (80:20%, v/v), and formic acid (0.1%, v/v). Flow rate was 0.2 ml/min, and injection volume was 5 μl. DAHP eluted at 4.7 min. Mass spectrometer in positive ion mode, 5200 V, 400° C., auxiliary gas flow 6 l/min. The mass transition for the MRM was m/z 127→60. Quantification with Analyst software V1.1 (Applied Biosystems). Coefficient of variation over the calibration range of 10-4000 ng/ml <5%.
# [8] = test system: Sprague Dawley rats; test: Nociceptive thresholds in naïve animals (von Frey, radiant heat); assay type: in vivo, rat; conditions: naïve animals, 180 mg/kg i.p.; 180 mg/kg
# Description: as §2, §3
# [9] = test system: Rats; test: Forced Swim Test; assay type: in vivo, rat; conditions: 180 mg/kg i.p., 3 injections
# Description: FIGS. 8A-8D show the effects of DAHP injection. […] DAHP (250 μg/kg/h) was delivered to the lumbar spinal cord via a chronically implanted spinal catheter connected to an osmotic Alzet pump. Infusion started right after SNI surgery and continued 14 days, flow rate 5 μl/h (n=8, p<0.05). […] Effect versus time AUCs were used for statistical comparisons. […] Rats (n=7 per condition) received 3 separate injections of DAHP (180 mg/kg, i.p.), at 1 hr, 19 hrs, and 23 hrs after the first exposure to forced swimming. This commonly used treatment regimen identifies in rats agents with antidepressant or pro-depressant effects in humans (Mague et al., J Pharmacol Exp Ther 305:323-330 (2003)). Retest sessions (forced swim for 300 sec) occurred 24 hr after the first swim exposure and were videotaped from the side of the water cylinders and scored by raters unaware of the treatment condition. Rats were rated at 5 sec intervals throughout the duration of the retest session; at each 5 sec interval the predominant behavior was assigned to one of four categories: immobility, swimming, climbing, or diving. The sum of these scores are shown for each modality. For all panels, error SEM.
# [10] = test system: nitric oxide production; test: Nitric oxide production in L4/5 DRGs after SNI; assay type: in vivo, rat; conditions: 7 d after SNI, once daily treatment
# [11] = test system: serotonin; test: Serotonin concentrations in spinal cord and brain stem; assay type: in vivo, rat; conditions: data not shown
# [12] = Observation of general well-being, body weight, gait, activity; assay type: in vivo, rat; conditions: acute single or daily treatment, 180 mg/kg i.p.; 180 mg/kg
# [13] = molecular target: GTP cyclohydrolase; conditions: determined in vitro (Kolinsky and Gross 2004; Xie et al. 1998); read-out: IC50 range for GTP cyclohydrolase inhibition; cited from earlier work
# [14] = test system: GCH1; test: LPS induction of GCH1 in cells of haplotype carriers and non-carriers; assay type: cell-based, human; conditions: cells of individuals with versus without the pain protective haplotype
# [15] = repeated daily injections, measured two-three hours after injection
molecule,measurement,setting,value
"Nc1cc(O)nc(N)n1 [DAHP, 2,4-diamino-6-hydroxypyrimidine]","mechanical and cold pain hypersensitivity, established",[1]; 180 mg/kg/d i.p. starting 17 days after nerve injury,produced a significant reduction of mechanical and cold pain hypersensitivity; also recorded: decreases pain hypersensitivity
same,"relative efficacy, extent of return to pre-surgery baseline values","[1]; SNI model, versus comparators measured earlier (Decosterd et al. 2004)","exceeds that of non-sedating doses of morphine, gabapentin, amitriptyline, and carbamazepine"
same,analgesia on repeated daily administration,"[1]; SNI, repeated daily administration",continues to produce analgesia without obvious loss of activity
same,dose dependence of effect on mechanical and cold allodynia,"[1]; SNI, repeated daily i.p. injections",dose dependent efficacy; also recorded: dose-dependent reductions in mechanical and cold allodynia
same,mechanical and cold allodynia,"[1]; continuous intrathecal infusion 250 μg/kg/h, 14 days from SNI surgery",reduces mechanical and cold allodynia
same,"linear relationship between dose and effect (R), cold allodynia",[1]; [15],0.754
same,"linear relationship between dose and effect (R), mechanical allodynia",[1]; [15],0.709
same,time to reversal of mechanical and cold pain hypersensitivity,[1]; single dose 180 mg/kg i.p. four days after SNI,≤ 60 min
same,mechanical (von Frey) and cold allodynia,"[1]; single dose 180 mg/kg i.p. four days after SNI, 180 mg/kg",significantly reduced mechanical (von Frey) and cold allodynia; also recorded: reverses mechanical and cold pain hypersensitivity
same,mechanical and cold allodynia,[2],analgesic effects; also recorded: dose-dependent reductions in mechanical and cold allodynia
same,mechanical and cold allodynia,[3],analgesic effects; also recorded: dose-dependent reductions in mechanical and cold allodynia
same,thermal hyperalgesia,"[4]; 180 mg/kg i.p., before CFA and 24 hours after CFA",significantly reduced thermal hyperalgesia; also recorded: reduce CFA-evoked heat hyperalgesia
same,thermal hyperalgesia,"[4]; single intrathecal injection of 1 mg/kg, 1 mg/kg",reduced thermal hyperalgesia
same,formalin-induced flinching behavior,"[5]; 180 mg/kg i.p. before formalin, first and second phases",significantly reduced formalin-induced flinching behavior in both phases; also recorded: significantly reduces the flinching behavior in the first and second phases
same,number of cFos immunoreactive neurons in ipsilateral dorsal horn,"[5]; 180 mg/kg i.p., two hours after formalin injection",reduced number of cFOS immunoreactive neurons; also recorded: significant reduction in the number of cFos immunoreactive neurons
same,biopterin levels in ipsilateral L4/5 DRGs,[6]; 24 h after CFA,reduced neopterin and biopterin; also recorded: significantly reduces elevated biopterin levels
same,neopterin levels in ipsilateral L4/5 DRGs,[6]; 24 h after CFA,reduced neopterin and biopterin; also recorded: completely prevents the inflammation-evoked increase of neopterin
same,biopterin levels in L4/5 DRGs,[6]; 7 days after SNI,reduced neopterin and biopterin; also recorded: significantly reduces biopterin levels
same,neopterin levels in L4/5 DRGs,[6]; 7 days after SNI,reduced neopterin and biopterin; also recorded: completely prevents the nerve injury induced increases in neopterin
same,plasma and CSF concentrations,[7],within the IC50 range
same,mechanical threshold and radiant heat paw withdrawal latency,[8],failed to modify mechanical and thermal threshold; also recorded: did not change the mechanical threshold for paw withdrawal or radiant heat evoked paw withdrawal latency
same,performance in the forced swim test,[9],had no effect
same,nitric oxide levels in L4/5 DRGs,[10],normalization of NO levels; also recorded: prevented by DAHP treatment
same,serotonin concentrations in spinal cord and brain stem,[11],"did not, however, significantly reduce serotonin concentrations"
same,"general well-being, body weight, gait, activity",[12],No deleterious effect; also recorded: had no effect
same,pIC50,[13],3.52 to 4.00
lipopolysaccharide [LPS],GCH1 induction,[14],induced GCH1 to a lesser extent
